For test [1], the target named is nuclear factor-kappa B (NF-kB)-inducing kinase (NIK) (Homo sapiens (Human), UniProt Q99558). Briefly: NIK enzyme inhibition assay (Transcreener ADP, NIK ADP-FP). The format is biochemical. Conditions: purified NIK 0.5 nM, 10 μM ATP, fluorescence polarization; read-out: NIK ADP-FP (Ki μM).
In test [2] the test system is REL-A (p65) nuclear translocation, HeLa cells. Briefly: REL-A (p65) nuclear translocation assay in HeLa cells (classical NF-kB signaling, TNF-α stimulated). The format is cell-based. Conditions: Homo sapiens, 0.5 h. In outline:
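HeLa cells were exposed to test compounds at various concentrations (0.2% DMSO final) in medium with 10% fetal bovine serum for 4.5 hours, then stimulated for 30 minutes with 10 ng/mL TNF-α. After fixation in 4% paraformaldehyde, 0.1% Triton X-100 permeabilization and staining with 400 ng/mL anti-REL-A (p65) antibody, Alexa488 secondary and DRAQ5, Opera imaging gave nuclear-to-cytoplasmic signal ratios to calculate IC50.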

The test system of test [3] is p52 (NF-kB2) nuclear translocation, HeLa cells. Briefly: p52 (NF-kB2) nuclear translocation assay in HeLa cells (non-classical NF-kB signaling, anti-lymphotoxin beta receptor antibody stimulated). The format is cell-based. Particulars: Homo sapiens, 100 ng/mL anti-lymphotoxin beta receptor antibody for 5 hours, read-out: p52 HeLa Transloc Assay (IC50). The procedure, abridged:
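HeLa cells in 10% FBS medium were treated with compound (0.2% DMSO final) and stimulated with 100 ng/mL anti-lymphotoxin beta receptor antibody for 5 h. Fixed cells were immunostained for p52 and imaged with DRAQ5 nuclear stain. Translocation is the nuclear to cytoplasmic intensity ratio, and IC50 values are in micromolar.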

The mark [4] stands for this setting: HeLa cells, 10 ng/mL TNF-α for 30 minutes, read-out: REL-A HeLa Transloc Assay (IC50).

Where two headings read alike, the source gives them in different places.

Sequence of nuclear factor-kappa B (NF-kB)-inducing kinase (NIK) (Q99558 whole entry): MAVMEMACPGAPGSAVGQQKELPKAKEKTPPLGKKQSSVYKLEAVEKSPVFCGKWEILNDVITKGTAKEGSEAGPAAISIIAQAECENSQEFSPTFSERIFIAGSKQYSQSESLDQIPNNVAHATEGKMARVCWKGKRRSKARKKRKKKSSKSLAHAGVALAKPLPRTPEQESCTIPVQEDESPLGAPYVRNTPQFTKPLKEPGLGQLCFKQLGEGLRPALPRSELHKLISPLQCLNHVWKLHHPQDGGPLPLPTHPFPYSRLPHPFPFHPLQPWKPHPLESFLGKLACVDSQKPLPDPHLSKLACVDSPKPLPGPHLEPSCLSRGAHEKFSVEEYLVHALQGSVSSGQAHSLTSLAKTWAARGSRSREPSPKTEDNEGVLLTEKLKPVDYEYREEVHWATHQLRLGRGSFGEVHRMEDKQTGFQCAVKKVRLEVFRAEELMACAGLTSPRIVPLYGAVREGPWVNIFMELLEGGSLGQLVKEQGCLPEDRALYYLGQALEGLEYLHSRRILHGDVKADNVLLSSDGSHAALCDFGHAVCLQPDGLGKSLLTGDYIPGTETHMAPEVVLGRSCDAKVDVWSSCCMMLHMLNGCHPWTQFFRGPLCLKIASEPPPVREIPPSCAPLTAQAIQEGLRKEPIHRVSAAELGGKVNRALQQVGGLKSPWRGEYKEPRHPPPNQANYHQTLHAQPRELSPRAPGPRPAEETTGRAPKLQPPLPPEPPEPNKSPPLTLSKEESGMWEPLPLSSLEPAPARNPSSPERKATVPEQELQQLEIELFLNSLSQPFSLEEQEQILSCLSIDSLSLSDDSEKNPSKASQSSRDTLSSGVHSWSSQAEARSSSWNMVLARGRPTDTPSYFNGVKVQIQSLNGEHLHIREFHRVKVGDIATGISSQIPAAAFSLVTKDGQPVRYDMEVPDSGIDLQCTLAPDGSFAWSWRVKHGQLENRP

The term Ki denotes the dissociation constant of the complex between target and ligand, obtained from inhibition or displacement. For orientation: IC50 means the point on the concentration scale where inhibition reaches its midpoint. As to `CN1CC[C@@](O)(C#Cc2cccc(-n3nc(C(N)=O)c4c3CCOC4)c2)C1=O` [Compound 70, 1-[3-[2-[(3R)-3-hydroxy-1-methyl-2-oxo-pyrrolidin-3-yl]ethynyl]phenyl]-6,7-dihy-dro-4H-pyrano[4,3-c]pyrazole-3-carboxamide], the inhibition constant Ki in test [1] is 0.75 nM. Besides, the concentration for half-maximal inhibition (IC50) came to 20 µM in test [2] (setting [4]) and 864 nM in test [3].

Consider `NC(=O)c1nn(-c2cc(C#C[C@]3(O)CCNC3=O)ccn2)c2cc(F)ccc12` [Compound 71, 6-fluoro-1-[4-[2-[(3R)-3-hy-droxy-2-oxo-pyrrolidin-3-yl]ethynyl]-2-pyridyl]indazole-3-carboxamide], for which the Ki in test [1] was 0.64 nM. Further, the IC50 came to 20 µM in test [2] (setting [4]) and 178 nM in test [3].

As for `NC(=O)c1nn(-c2cc(C#C[C@]3(O)CCc4cccnc43)ccn2)c2cc(F)ccc12` [Compound 72, 6-fluoro-1-[4-[2-[(7R)-7-hy-droxy-5,6-dihydrocyclopen-ta[b]pyridin-7-yl]ethynyl]-2-pyridyl]indazole-3-carbox-amide], in test [1], the Ki was determined as 0.14 nM. Also, the results for the IC50 in test [2] (setting [4]) and in test [3] were 20 µM and 247 nM, respectively.

On to `COc1cc(C#C[C@]2(O)CCN(C)C2=O)cc(-n2nc(C(N)=O)c3cccnc32)c1` [Compound 73, 1-[3-[2-[(3R)-3-hydroxy-1-methyl-2-oxo-pyrrolidin-3-yl]ethynyl]-5-methoxy-phe-nyl]pyrazolo[3,4-b]pyridine-3-carboxamide], for which, in test [1], the Ki is 1.05 nM. Also, the results for the IC50 in test [2] (setting [4]) and in test [3] were 20 µM and 119 nM, respectively.

Turning to `CN1CC[C@@](O)(C#Cc2cccc(-n3nc(C(N)=O)c4cc(F)cnc43)c2)C1=O` [Compound 75, 5-fluoro-1-[3-[2-[(3R)-3-hy-droxy-1-methyl-2-oxo-pyrroli-din-3-yl]ethynyl]phenyl] pyrazolo[3,4-b]pyridine-3-carboxamide], the Ki in test [1] amounted to 0.24 nM. Further, the values for the IC50 in test [2] (setting [4]) and in test [3] were 20 µM and 56.9 nM, respectively.

On to `CN1CC[C@@](O)(C#Cc2cccc(-n3nc(C(N)=O)c4cnc(Cl)cc43)c2)C1=O` [Compound 76, 6-chloro-1-[3-[2-[(3R)-3-hy-droxy-1-methyl-2-oxo-pyrroli-din-3-yl]ethynyl]phenyl] pyrazolo[4,3-c]pyridine-3-carboxamide], for which the Ki in test [1] stood at 0.05 nM. Also, the IC50 in test [2] (setting [4]) was 8 µM; in test [3], 41.2 nM.

`Cc1c(Cl)c(C(N)=O)nn1-c1cc(C#C[C@]2(O)CCN(C)C2=O)ccn1` [Compound 78, 4-chloro-1-[4-[2-[(3R)-3-hy-droxy-1-methyl-2-oxo-pyrroli-din-3-yl]ethynyl]-2-pyri-dyl]-5-methyl-pyrazole-3-car-boxamide]: the inhibition constant (Ki) in test [1] came out at 16.8 nM. Also, the IC50 came to 20 µM in test [2] (setting [4]) and 2710 nM in test [3].

Take `CN1CC[C@@](O)(C#Cc2cccc(-c3nc(C(N)=O)n4cccnc34)c2)C1=O` [Compound 85, 8-[3-[2-[(3R)-3-hydroxy-1-methyl-2-oxo-pyrrolidin-3-yl]ethynyl]phenyl]imidazo[1,5-a]pyrimidine-6-carboxamide]: the Ki in test [1] worked out at 0.05 nM. Moreover, the IC50 in test [2] (setting [4]) was 19.2 µM; in test [3], 38.6 nM.

Take `CN1CC[C@@](O)(C#Cc2cccc(-c3nc(C(N)=O)c4cccnn34)c2)C1=O` [Compound 86, 7-[3-[2-[(3R)-3-hydroxy-1-methyl-2-oxo-pyrrolidin-3-yl]ethynyl]phenyl]imidazo[1,5-b]pyridazine-5-carboxamide]: the Ki in test [1] was determined as 0.73 nM. Besides, the IC50 stood at 20 µM in test [2] (setting [4]) and 356 nM in test [3].

For the molecule `CN1CC[C@@](O)(C#Cc2cccc(-c3csc(C(N)=O)n3)c2)C1=O` [Compound 89, 4-[3-[2-[(3R)-3-hydroxy-1-methyl-2-oxo-pyrrolidin-3-yl]ethynyl]phenyl]thiazole-2-carboxamide], the Ki in test [1] amounted to 1.65 nM. The results for the IC50 in test [2] (setting [4]) and in test [3] were more than 20 µM and 226 nM, respectively.

Consider `CN1CC[C@@](O)(C#Cc2cccc(-c3nc(C(N)=O)n4ccc(C#N)cc34)c2)C1=O` [Compound 90, 7-cyano-1-[3-[2-[(3R)-3-hy-droxy-1-methyl-2-oxo-pyrroli-din-3-yl]ethynyl]phenyl] imidazo[1,5-a]pyridine-3-car-boxamide], for which, in test [1], the Ki stood at 0.05 nM. The IC50 in test [2] (setting [4]) is 2 µM; in test [3], 63.4 nM.

Turning to `CN1CC[C@@](O)(C#Cc2cccc(-c3nc(C(N)=O)n4ccc(C(F)(F)F)cc34)c2)C1=O` [Compound 91, 1-[3-[2-[(3R)-3-hydroxy-1-methyl-2-oxo-pyrrolidin-3-yl]ethynyl]phenyl]-7-(trifluoro-methyl)imidazo[1,5-a]pyri-dine-3-carboxamide], the Ki in test [1] came out at 0.15 nM. The figures for the IC50 in test [2] (setting [4]) and in test [3] were 20 µM and 18.9 nM, respectively.

With `CN1CC[C@@](O)(C#Cc2cccc(-c3nc(C(N)=O)n4ccncc34)c2)C1=O` [Compound 92, 1-[3-[2-[(3R)-3-hydroxy-1-methyl-2-oxo-pyrrolidin-3-yl]ethynyl]phenyl]imidazo[1,5-a]pyrazine-3-carboxamide], the Ki in test [1] stood at 0.37 nM. In addition, the IC50 in test [2] (setting [4]) worked out at 20 µM; in test [3], 25.9 nM.

Regarding `CN1CC[C@@](O)(C#Cc2cccc(-c3nc(C(N)=O)n4cc(Cl)ccc34)c2)C1=O` [Compound 93, 6-chloro-1-[3-[2-[(3R)-3-hy-droxy-1-methyl-2-oxo-pyrroli-din-3-yl]ethynyl]phenyl] imidazo[1,5-a]pyridine-3-carboxamide], in test [1], the Ki worked out at 0.06 nM. In addition, the IC50 in test [2] (setting [4]) is 20 µM; in test [3], 15.3 nM.

For `CN1CC[C@@](O)(C#Cc2cccc(-c3nc(C(N)=O)n4ccc(Cl)cc34)c2)C1=O` [Compound 94, 7-chloro-1-[3-[2-[(3R)-3-hy-droxy-1-methyl-2-oxo-pyrroli-din-3-yl]ethynyl]phenyl] imidazo[1,5-a]pyridine-3-carboxamide], the inhibitory constant (Ki) in test [1] stood at 0.05 nM. The IC50 in test [2] (setting [4]) is 6.32 µM; in test [3], 7.26 nM.

For the molecule `CN1CC[C@@](O)(C#Cc2cccc(-c3ccn4c(C(N)=O)nc(-c5cccc(C#C[C@]6(O)CCN(C)C6=O)c5)c4c3)c2)C1=O` [Compound 95, 1,7-bis[3-[2-[(3R)-3-hydroxy-1-methyl-2-oxo-pyrrolidin-3-yl]ethynyl]phenyl]imi-dazo[1,5-a]pyridine-3-carbox-amide], the Ki in test [1] was 0.05 nM. Also, the IC50 in test [2] (HeLa, read-out: REL-A HeLa Transloc Assay (IC50) [μM]) was 2 µM; in test [3], 86.4 nM.

Take `CN1CC[C@@](O)(C#Cc2cccc(-c3nc(C(N)=O)n4ccc(OC5CCC5)cc34)c2)C1=O` [Compound 96, 7-(cyclobutoxy)-1-[3-[2-[(3R)-3-hydroxy-1-methyl-2-oxo-pyrrolidin-3-yl]ethynyl]phenyl]imidazo[1,5-a]pyridine-3-carboxamide]: in test [1], the Ki was 0.14 nM. In addition, the results for the IC50 in test [2] (setting [4]) and in test [3] were 20 µM and 60.3 nM, respectively.

Regarding `COc1ccn2c(C(N)=O)nc(-c3cccc(C#C[C@]4(O)CCN(C)C4=O)c3)c2c1` [Compound 97, 1-[3-[2-[(3R)-3-hydroxy-1-methyl-2-oxo-pyrrolidin-3-yl]ethynyl]phenyl]-7-methoxy-imidazo[1,5-a]pyridine-3-carboxamide], in test [1], the Ki turned out to be 0.05 nM. For the same molecule, the IC50 in test [2] (setting [4]) is 1 µM; in test [3], 6.6 nM.

As for `CN1CC[C@@](O)(C#Cc2cccc(-c3nc(C(N)=O)n4ccc(CN5CCOCC5)cc34)c2)C1=O` [Compound 99, 1-[3-[2-[(3R)-3-hydroxy-1-methyl-2-oxo-pyrrolidin-3-yl]ethynyl]phenyl]-7-(morpho-linomethyl)imidazo[1,5-a]pyridine-3-carboxamide], in test [1], the Ki was 1.52 nM. For the same molecule, the IC50 came to 2 µM in test [2] (setting [4]) and 231 nM in test [3].

With `CN1CC[C@@](O)(C#Cc2cccc(-c3nc(C(N)=O)n4cc(CN5CCOCC5)ccc34)c2)C1=O` [Compound 100, 1-[3-[2-[(3R)-3-hydroxy-1-methyl-2-oxo-pyrrolidin-3-yl]ethynyl]phenyl]-6-(morpho-linomethyl)imidazo[1,5-a]pyridine-3-carboxamide], the Ki in test [1] is 1.65 nM. In addition, the values for the IC50 in test [2] (setting [4]) and in test [3] were 2 µM and 156 nM, respectively.

In the case of `CN1CC[C@@](O)(C#Cc2cccc(-n3nc(C(N)=O)c4cc(-c5ccn(C)n5)ccc43)c2)C1=O` [Compound 101, 1-[3-[2-[(3R)-3-hydroxy-1-methyl-2-oxo-pyrrolidin-3-yl]ethynyl]phenyl]-5-(1-meth-ylpyrazol-3-yl)indazole-3-carboxamide], in test [1], the Ki came out at 0.06 nM. The IC50 in test [2] (setting [4]) turned out to be 6.32 µM; in test [3] it was 31.2 nM.

Take `CN1CC[C@@](O)(C#Cc2cccc(-n3nc(C(N)=O)c4cc(-c5cnn(C)c5)cnc43)c2)C1=O` [Compound 104, 1-[3-[2-[(3R)-3-hydroxy-1-methyl-2-oxo-pyrrolidin-3-yl]ethynyl]phenyl]-5-(1-meth-ylpyrazol-4-yl)pyrazolo[3,4-b]pyridine-3-carboxamide]: the Ki in test [1] was found to be 0.1 nM. Also, the IC50 in test [2] (setting [4]) was 2 µM; in test [3], 26.7 nM.

The values above are taken from US9605005B2, “Alkynyl alcohols and methods of use” (Genentech, Inc., priority 2013, dated 2017).
